Data reported in patent publication US12702694B2, “Methods for identification, assessment, prevention, and treatment of metabolic disorders using SLIT2” (Dana-Farber Cancer Institute, Inc., priority 2015, dated 2026).

How the values were obtained:
Slit2 = Slit2 mRNA in adipose tissue after daily CL 316,243 injections; assay type: in vivo, Mus musculus; conditions: 3 days treatment, daily injections 1 mg/kg; did not reach statistical significance; FIG. 2F
Method: RNA was extracted from cultured cells or frozen tissue samples using TRIzol®, purified with QIAGEN RNeasy® minicolumns. Normalized RNA was reversed transcribed using a high-capacity cDNA reverse transcription lot (Applied Biosystems) and cDNA was analyzed by qRT-CPR. Relative mRNA levels were calculated using the comparative CT method and normalized to cyclophilin […]. All primers used are listed with their sequences in Table 3 as follows: […]

primary inguinal cells = assay: Thermogenic gene expression in Slit2-C transduced primary inguinal cells co-treated with inhibitors; assay type: cell-based, Mus musculus
Method: Inguinal and brown stromal-vascular fractions were obtained from 6 weeks old male or newborn mice (postnatal days 5-10) for white and brown fat cultures, respectively. Inguinal fat tissue was dissected and washed with PBS, minced and digested for 45 min at 37° C. in PBS containing 10 mM CaCl2), 2.4 U/ml dispase II (Roche) and 10 mg/ml collagenase D (Roche). Brown fat tissue was dissected, washed with PBS, minced and digested for 45 min at 37° C. in PBS containing 1.3 mM CaCl2, 123 mM NaCl, 5 mM KCl, 5.0 mM glucose, 100 mM HEPES, 4% BSA and 1.5 mg/ml collagenase B (Roche). Digested tissue was filtered through a 100-μm cell strainer and centrifuged at 600 g for 10 min. Pelleted inguinal stromal-vascular cells were grown to confluence and induced to differentiate by an adipogenic cocktail containing 0.02 μM insulin, 1 μM rosiglitazone, 5 μM dexamethasone, 0.5 μM isobuthylmethylxanthine. For differentiation of brown fat cells, 1 nM T3 and 125 μM indomethacin were also added to the adipogenic cocktail. Two days after induction, cells were maintained in adipocyte culture medium containing 0.02 μM insulin and 1 μM rosiglitazone. Where indicated, cells were treated with forskolin (10 μM), norepinephrine (100 nM) for 4 h or with recombinant proteins (1 μg/ml, R&D systems) for 24 h or for the indicated times. For adenoviral overexpression of Slit2-FL, Slit2-N, Slit2-C, LacZ or Cre, virus was added at day 2 of differentiation at a titer of 10^8 particles/well and cells were analyzed at day 6-7. […]
RNA was extracted from cultured cells or frozen tissue samples using TRIzol®, purified with QIAGEN RNeasy® minicolumns. Normalized RNA was reversed transcribed using a high-capacity cDNA reverse transcription lot (Applied Biosystems) and cDNA was analyzed by qRT-CPR. Relative mRNA levels were calculated using the comparative CT method and normalized to cyclophilin […]. […]

PKA signaling pathway [1] = assay: Western blotting of PKA and related signaling in primary inguinal cells; assay type: cell-based, Mus musculus; conditions: H89 30 μM, 2 h, primary inguinal cells; FIG. 10C
Method: Inguinal and brown stromal-vascular fractions were obtained from 6 weeks old male or newborn mice (postnatal days 5-10) for white and brown fat cultures, respectively. Inguinal fat tissue was dissected and washed with PBS, minced and digested for 45 min at 37° C. in PBS containing 10 mM CaCl2), 2.4 U/ml dispase II (Roche) and 10 mg/ml collagenase D (Roche). Brown fat tissue was dissected, washed with PBS, minced and digested for 45 min at 37° C. in PBS containing 1.3 mM CaCl2, 123 mM NaCl, 5 mM KCl, 5.0 mM glucose, 100 mM HEPES, 4% BSA and 1.5 mg/ml collagenase B (Roche). Digested tissue was filtered through a 100-μm cell strainer and centrifuged at 600 g for 10 min. Pelleted inguinal stromal-vascular cells were grown to confluence and induced to differentiate by an adipogenic cocktail containing 0.02 μM insulin, 1 μM rosiglitazone, 5 μM dexamethasone, 0.5 μM isobuthylmethylxanthine. For differentiation of brown fat cells, 1 nM T3 and 125 μM indomethacin were also added to the adipogenic cocktail. Two days after induction, cells were maintained in adipocyte culture medium containing 0.02 μM insulin and 1 μM rosiglitazone. Where indicated, cells were treated with forskolin (10 μM), norepinephrine (100 nM) for 4 h or with recombinant proteins (1 μg/ml, R&D systems) for 24 h or for the indicated times. For adenoviral overexpression of Slit2-FL, Slit2-N, Slit2-C, LacZ or Cre, virus was added at day 2 of differentiation at a titer of 10^8 particles/well and cells were analyzed at day 6-7. Where indicated, cells were treated with the drugs Erlotinib (SelleckChem), Lapatinib (Santa Cruz), PD0325901 (Santa Cruz), Propranolol (SelleckChem), H89 dihydrochloride (Santa Cruz), SQ-22536 (Santa Cruz) for indicated time points and concentrations.
For Western blotting, homogenized tissues, whole cell lysates, or concentrated serum free conditioned medium were lysed in RIPA buffer containing protease inhibitor cocktail (Thermo Scientific) and phosphatase inhibitor cocktail (Thermo Scientific), separated by SDS-PAGE and transferred to Immobilon-P® membranes (Millipore). For Western blotting of plasma samples, 1 μl of plasma was prepared containing 2× sample buffer (Invitrogen) with reducing agent, boiled and analyzed using Western blot against V5, FLAG, or the indicated antibody. V5-antibody was from Life Technologies and anti-Flag M2-HRP (A8592) from Sigma Aldrich. Anti-Slit2 antibody used was from Abcam (Abcam ab134166). Phospho-PKA Substrate, phospho-PKC Substrate, phospho-ERK1/2, total ERK, phospho-AKT, total AKT, phospho-AMPK, total AMPK, phospho-ATGL, ATGL, phospho-EGFR and EGFR were from Cell Signaling. Protein array was from R&D Systems (Proteome Profiler Mouse Phospho-RTK Array Kit, ARY014). Silverstain (SilverQuest™ Silver Staining Kit, LC6070) was purchased from Thermo Fisher.

PKA signaling pathway [2] = assay: as above; assay type: cell-based, Mus musculus; conditions: 20 nM NE; FIG. 10M
brown fat = conditions: humans; Cypess et al. (2015); cited from earlier work
[3] = tested on: cell surface of primary inguinal adipocytes; assay: Cell surface binding by confocal laser scanning microscopy; design: species or system Mus musculus; conditions: purified FLAG-tagged protein, live adipocytes incubated at 4° C.; FIGS. 10L, 11E
Method: Live, primary differentiated adipocytes were incubated with recombinant Slit2-C FLAG-tagged protein for 1 h at 4° C. before fixation and staining with a fluorescent antibody for visualization of cell-surface bound proteins using a confocal laser scanning microscope.
Experiments were performed using a Nikon Ti w/A1R confocal inverted microscope equipped with a Nikon Plan Apo 60x/NA 1.4 oil immersion objective lens using excitation wavelengths of 405 and 561 nm. All experiments were performed under confocal imaging conditions (pinhole <1 airy unit) and images taken with the same laser settings. Image analysis was performed using the Nikon Elements acquisition software. Primary inguinal cells differentiated until day 5 was gently trypsinized and seeded onto poly-D-lysine-coated coverslips (Corning Biocoat 12 mm German Glass coverslips, #08-774-385) in a 6-well plate at a density of 10,000 cells per well in growth medium. On the next day, cell surface binding was performed by adding 1 μg/ml purified protein to cells or FLAG peptide in PBS in serum-containing medium for 1 h at 4° C. on ice. Cells were washed three times in PBS, fixed in 4% paraformaldehyde for 10 min at 4° C., and washed with PBS three times before blocking with 5% BSA in PBS for 1 h at room temperature. Cells treated with protein or FLAG peptide alone were stained using 1:200 anti-Flag M2-HRP overnight at 4° C. […]

## C[C@H](Cc1ccc2c(c1)OC(C(=O)[O-])(C(=O)[O-])O2)NC[C@H](O)c1cccc(Cl)c1.[Na+].[Na+] [CL316, 243]
Slit2
  Slit2 gene expression in iWAT: trend to an increase

## Cl.Cl.O=S(=O)(NCCNC/C=C/c1ccc(Br)cc1)c1cccc2cnccc12 [H89, H89 dihydrochloride]
Primary inguinal cells; H89 30 μM, FIG. 10D
  Dio2 mRNA in cells receiving Slit2-C: down to baseline levels
  reduction of Ucp1 mRNA in cells receiving Slit2-C: 50%
PKA signaling pathway [1]
  phosphorylation of PKA substrates: significantly reduced

## NC[C@H](O)c1ccc(O)c(O)c1 [NE, norepinephrine]
PKA signaling pathway [2]
  time of treatment to full PKA phosphorylation response: ≤ 5 min

## CC(C)NCC(O)COc1cccc2ccccc12 (stereo not drawn) [Propranolol]
Primary inguinal cells; propranolol 100 nM for 24 h, FIG. 10H
  inhibition of Slit2-C induced thermogenesis: did not inhibit

## Nc1nc(CC(=O)Nc2ccc(CCNC[C@H](O)c3ccccc3)cc2)cs1 [mirabegron]
Brown fat
  brown fat activation: apparent activation of brown fat
  resting metabolic rate: increased resting metabolic rate

B1: Pm20D1: another FLAG-tagged protein secreted from thermogenic adipocytes, control for specific staining (protein)
chain: STGPRSRENRGASRIPSQFSEEERVAIKEALKGAIQIPTVSFSHEESNTTALAEFGEYIRKAFPTVFHSSLVQHEVVAKYSHLFTIQGSDPSLQPYMLMAHIDVVPAPEEGWEVPPFSGLERNGFIYGRGALDNKNSVMAILHALELLLIRNYSPKRSFFIALGHDEEVSGEKGAQKISALLQARGVQLAFLVDEGSFILEGFIPNLEKPVAMISVTEKGALDLMLQVNMTPGHSSAPPKETSIGILSAAVSRLEQTPMPNMFGGGPLKKTMKLLANEFSFPINIVLRNLWLFHPIVSRIMERNPITNALVRTTTALTMFNAGIKVNVIPPLAQATINCRIHPSQTVHEVLELVKNTVADDRVQLHVLRSFEPLPISPSDDQAMGYQLLQETIRSVFPEVDIVVPGICIANTDTRHYANITNGMYRFNPLPLNPQDFSGVHGINEKVSVQNYQNQVKFIFEFIQNADTYKEPVPHLHEL
modifications: left off: small tags and cut ends
notes: another FLAG-tagged protein secreted from thermogenic adipocytes, control for specific staining
[3]
  binding to the cell surface of adipocytes: very limited binding
